Experimental data: article PMC9781652, “Dinuclear Iron Complexes of Iminopyridine-Based Ligands as Selective Cytotoxins for Tumor Cells and Inhibitors of Cancer Cell Migration” (Pharmaceutics, 2022)

Legend:
OVCAR-8 cells [1] = experiment: Cell cycle phase analysis (PI flow cytometry), OVCAR-8; type: cell-based, human; details: OVCAR-8, 0.8 µM, 72 h
Procedure: (§1) NCI-H460 and OVCAR-8 cells were treated for 72 h with compound 10 (0.3 μM for NCI-H460 and 0.8 μM for OVCAR-8). Then, they were collected and fixed at −20 °C with 70% ethanol for at least 1 h. Fixed cells washed with cold PBS were resuspended in PBS at a cell density of 1–2 × 10^6 cells/mL, treated at 37 °C for 30 min with ribonuclease A (100 μg/mL) and PI (40 μg/mL) (Molecular Probes, Eugene, OR, USA), and analyzed by flow cytometric. At least 10,000 cells within the gated region were analyzed on a NovoCyte Flow Cytometer (ACEA Biosciences, San Diego, CA, USA). Cell cycle distribution was analyzed using NovoExpress software (ACEA Biosciences, San Diego, CA, USA).

supercoiled pUC18 DNA = experiment: DNA interaction analysis by agarose gel electrophoresis; type: biochemical; details: highest concentrations, 24 h, 37 °C, with H2O2
Procedure: The interaction of DNA with the compounds was monitored in an agarose gel electrophoresis as previously described. […] Two other samples were included in the assays: a sample of pUC18 DNA alone as negative control and a sample of pUC18 DNA with 5 µg/mL cisplatin for comparison purposes. […] Gels were stained with ethidium bromide (1 µg/mL in TBE) for 15 min and DNA bands were visualized under UV light.

OVCAR-8 cells [2] = experiment: Apoptosis analysis, Annexin V-Alexa Fluor 488/PI flow cytometry, OVCAR-8; type: cell-based, human; details: OVCAR-8, 1.65 µM, 72 h
Procedure: (§2) Quantitative analysis of apoptotic cell death caused by compound 10 treatment was carried out by flow cytometry using the Alexa Fluor 488 annexin V/PI Vybrant Apoptosis Assay Kit (Molecular Probes, Eugene, OR, USA) as previously described. Briefly, NCI-H460 cells (7 × 10^4 per well) and OVCAR-8 cells (8 × 10^4 per well) were seeded into 6-well plates and then treated with compound 10 (0.64 μM for NCI-H460 and 1.65 μM for OVCAR-8) for 72 h in serum starved medium. After treatment, we collected attached and floating cells, washed them in cold PBS and stained them for 15 min in the dark with Annexin V-Alexa Fluor 488 and propidium iodide (PI) at room temperature. Cells were analyzed using NovoCyte Flow Cytometer (ACEA Biosciences, San Diego, CA, USA) and NovoExpress software (ACEA Biosciences, San Diego, CA, USA). At least 10,000 cells within the gated region were analyzed.

NCI-H460 cells [3] = experiment: Flow cytometric analysis of ROS generation (carboxy-H2DCFDA), NCI-H460; type: cell-based, human; details: NCI-H460, 0.7, 1.5 or 3 µM, 48 or 72 h
Procedure: (§3) ROS generation after treatment with the compounds was analyzed using a carboxy-20, 70-dichlorodihydrofluorescein diacetate probe (carboxy-H2DCFDA) (Invitrogen, Waltham, MA). ROS species oxidize this molecule to green fluorescent dichlorofluorescein (DCF), allowing their detection inside the cells using a flow cytometer. A total of 24 h prior to treatments cells were seeded at 70,000 cells/well in 6-well plates in phenol red-free RPMI. Then, they were treated for 48 or 72 h at 37 °C with different concentrations of compound 10 (0.7, 1.5, or 3 μM for NCI-H460 cells and 2, 4.5, or 9 μM for OVCAR-8 cells) for 48 or 72 h at 37 °C. After treatments, cells were washed with PBS and incubated for 30 min at 37 °C in the dark with either 1 μM (NCI-H460 cells) or 0.5 μM (OVCAR-8 cells) carboxy-H2DCFDA diluted in PBS. Cells were then collected with phenol red-free trypsin and analyzed using a NovoCyte Flow cytometer. NovoExpress software (ACEA Biosciences, San Diego, CA, USA) was used to stablish the geometric mean fluorescence intensity of 10,000 cells.

[4] = test system: NCI-H460 human lung carcinoma cells; experiment: Cell proliferation assay (MTT), NCI-H460; type: cell-based; details: for IC50: 72 h exposure, MTT, mean ± SE; for SI NCI-H460 (selectivity index): ratio IC50 CCD-18Co / IC50 NCI-H460
Procedure: (§4) Cells were seeded into 96-well plates at densities of 1500 cells per well for OVCAR-8, 1900 for NCI-H460, and 4000 for CCD-18Co. After 24 h of incubation, they were treated for 72 h with different concentrations of the compounds (concentration range: 0.01 to 6 μM for OVCAR-8; 0.05 to 2 μM for NCI-H460; and 0.07 to 70 μM for CCD-18Co cells). When indicated, cells were also incubated with 30 µM of the ROS scavenger Manganese (III) 5,10,15,20-tetrakis (4-benzoic acid) porphyrin (MnTBAP) (Calbiochem, San Diego, CA, USA). Cell viability was measured using the MTT assay as previously described. The IC50 value corresponds to the concentration of the assayed compound that is required to inhibit the cell proliferation by 50%, and was calculated by linear interpolation from the obtained growth curves. All data are reported as the mean ± standard error (SE) calculated from at least three independent experiments with three replicates in each.

MDA-MB-231 cells = experiment: Transwell cell migration assay; type: cell-based, human; details: 0.1 µM, 24, 48 or 72 h
Procedure: MDA-MB-231 cells were seeded into the upper chamber of a 24-well transwell insert (8 µm pore size; Sarstedt, Nümbrecht, Germany) at a density of 12,000 cells/0.5 mL RPMI 1640 medium with 0.5% FBS and treated with 0.1 µM compound 10 (corresponding to an IC20). The lower chamber was filled with 0.5 mL RPMI 1640 medium with 10% FBS as a chemoattractant. The cells on the upper side of the inserts were removed with a cotton swab after 24, 48, or 72 h of incubation at 37 °C. Cells that migrated to the lower side of the inserts were fixed for 30 min with 4% paraformaldehyde and stained for 20 min at room temperature with 0.2% crystal violet solution. Ten randomly selected fields at 200× magnification were counted using an Olympus CKX41 inverted microscope (Tokyo, Japan).

OVCAR-8 cells [5] = experiment: Flow cytometric analysis of ROS generation (carboxy-H2DCFDA), OVCAR-8; type: cell-based, human; details: OVCAR-8, 2, 4.5 or 9 µM, 48 or 72 h
Procedure: as §3

NCI-H460 cells [6] = experiment: Cell cycle phase analysis (PI flow cytometry), NCI-H460; type: cell-based, human; details: NCI-H460, 0.3 µM, 72 h
Procedure: as §1

[7] = test system: OVCAR-8 human ovarian carcinoma cells; experiment: Cell proliferation assay (MTT), OVCAR-8; type: cell-based; details: for IC50: 72 h exposure, MTT, mean ± SE; for SI OVCAR-8 (selectivity index): ratio IC50 CCD-18Co / IC50 OVCAR-8
Procedure: as §4

[8] = test system: CCD-18Co human colon fibroblasts; experiment: Cell proliferation assay (MTT), non-tumor CCD-18Co; type: cell-based; details: non-tumor cells, 72 h exposure, mean ± SE
Procedure: as §4

NCI-H460 cells [9] = experiment: Apoptosis analysis, Annexin V-Alexa Fluor 488/PI flow cytometry, NCI-H460; type: cell-based, human; details: NCI-H460, 0.64 µM, 72 h
Procedure: as §2

[10] = test system: MDA-MB-231 human breast carcinoma cells; experiment: Cytotoxicity on MDA-MB-231; type: cell-based

`CC#N.CC#N.CC#N.CC#N.Cc1cc(N=Cc2cccc(C)n2)c2c(c1)C1CC(O2)Oc2c(N=Cc3cccc(C)n3)cc(C)cc21.Cc1cc(N=Cc2cccc(C)n2)c2c(c1)C1CC(O2)Oc2c(N=Cc3cccc(C)n3)cc(C)cc21.F[B-](F)(F)F.F[B-](F)(F)F.F[B-](F)(F)F.F[B-](F)(F)F.[Fe+2].[Fe+2]` [Compound 10, [Fe2(4)2(CH3CN)4](BF4)4] was tested, and the “% G0/G1” value (OVCAR-8 cells [1]) was 41.91%, the “% G2/M” value (OVCAR-8 cells [1]) was 28.36% and the “% S” value (OVCAR-8 cells [1]) was 23.09%. For the same compound, the “% Sub-G1” value (OVCAR-8 cells [1]) was 6.61%, the “Effect on cell cycle phase distribution vs untreated cells” value (OVCAR-8 cells [1]) was “shift in the cell population from the G0/G1 phase to the S and G2/M phases” and the “Effect on pUC18 DNA in the presence of H2O2 at the highest concentrations” value (supercoiled pUC18 DNA) was “total DNA degradation”. The “percentage of cells that enter in apoptosis (early + late)” value (OVCAR-8 cells [2]) was ~66%, the “Early apoptotic cells (%)” value (OVCAR-8 cells [2]; serum starved medium) was 36.12 ± 2.32% and the “Late apoptotic cells (%)” value (OVCAR-8 cells [2]; serum starved medium) was 30.82 ± 2.60%. For the same compound, the “Necrotic cells (%)” value (OVCAR-8 cells [2]; serum starved medium) was 1.27 ± 0.08%, the “Viable cells (%)” value (OVCAR-8 cells [2]; serum starved medium) was 31.79 ± 3.27% and the “ROS levels (fold-increase vs control)” value (NCI-H460 cells [3]) was “ROS levels rise with time and concentration”. The IC50 [4] was 0.64 ± 0.05 µM, the “SI NCI-H460 (selectivity index)” value [4] was 33.7 and the “Migration of MDA-MB-231 cells” value (MDA-MB-231 cells) was “significantly reduces the migration”. For the same compound, the “ROS levels (fold-increase vs control)” value (OVCAR-8 cells [5]) was “ROS levels rise with time and concentration”, the “% G0/G1” value (NCI-H460 cells [6]) was 57.62% and the “% G2/M” value (NCI-H460 cells [6]) was 15.58%. The “% S” value (NCI-H460 cells [6]) was 21.71%, the “% Sub-G1” value (NCI-H460 cells [6]) was 5.10% and the “Effect on cell cycle phase distribution vs untreated cells” value (NCI-H460 cells [6]) was “do not show significant changes in the cell cycle phase distribution”. The IC50 [7] was 1.65 ± 0.26 µM, the “Cellular viability with vs without ROS scavenger MnTBAP” value ([7]; OVCAR-8, MTT, 30 µM MnTBAP) was “MnTBAP reduces the antiproliferative effect” and the “SI OVCAR-8 (selectivity index)” value [7] was 13.1. For the same compound, the IC50 [8] was 21.6 ± 3.18 µM, the “percentage of cells that enter in apoptosis (early + late)” value (NCI-H460 cells [9]) was “about 82%” and the “Early apoptotic cells (%)” value (NCI-H460 cells [9]; serum starved medium) was 13.72 ± 4.34%. For the same compound, the “Late apoptotic cells (%)” value (NCI-H460 cells [9]; serum starved medium) was 68.61 ± 3.04%, the “Necrotic cells (%)” value (NCI-H460 cells [9]; serum starved medium) was 1.29 ± 0.27% and the “Viable cells (%)” value (NCI-H460 cells [9]; serum starved medium) was 16.37 ± 2.32%. For the same compound, the IC50 ([10]; MDA-MB-231 cells) was 0.25 µM, the “fold lower IC50 than that described for cisplatin, MDA-MB-231” value ([10]; cisplatin value from literature) was “about 250 fold” and the IC20 ([10]; concentration used in migration assay, corresponding to an IC20) was 0.1 µM.
`CC#N.CC#N.CC#N.CC#N.COc1cccc(C=Nc2cc(C)cc3c2OC2CC3c3cc(C)cc(N=Cc4cccc(OC)n4)c3O2)n1.COc1cccc(C=Nc2cc(C)cc3c2OC2CC3c3cc(C)cc(N=Cc4cccc(OC)n4)c3O2)n1.F[B-](F)(F)F.F[B-](F)(F)F.F[B-](F)(F)F.F[B-](F)(F)F.[Fe+2].[Fe+2]` [Compound 11, [Fe25_2(CH3CN)4](BF4)4] was tested, and the IC50 [4] was 0.5 ± 0.1 µM, the “SI NCI-H460 (selectivity index)” value [4] was 24.1 and the IC50 [7] was 1.4 ± 0.3 µM. The “SI OVCAR-8 (selectivity index)” value [7] was 8.6 and the IC50 [8] was 12 ± 1.44 µM.
`CC#N.CC#N.CC#N.CC#N.Cc1cc(N=Cc2ccc(Br)cn2)c2c(c1)C1CC(O2)Oc2c(N=Cc3ccc(Br)cn3)cc(C)cc21.Cc1cc(N=Cc2ccc(Br)cn2)c2c(c1)C1CC(O2)Oc2c(N=Cc3ccc(Br)cn3)cc(C)cc21.F[B-](F)(F)F.F[B-](F)(F)F.F[B-](F)(F)F.F[B-](F)(F)F.[Fe+2].[Fe+2]` [Compound 9, [Fe23_2(CH3CN)4](BF4)4] was tested, and the IC50 [4] was 0.6 ± 0.04 µM, the “SI NCI-H460 (selectivity index)” value [4] was 12.0 and the IC50 [7] was 1.78 ± 0.16 µM. For the same compound, the “SI OVCAR-8 (selectivity index)” value [7] was 4.1 and the IC50 [8] was 7.2 ± 3.4 µM.
With `CC#N.CC#N.CC#N.CC#N.Cc1cc(N=Cc2ccc3ccccc3n2)c2c(c1)C1CC(O2)Oc2c(N=Cc3ccc4ccccc4n3)cc(C)cc21.Cc1cc(N=Cc2ccc3ccccc3n2)c2c(c1)C1CC(O2)Oc2c(N=Cc3ccc4ccccc4n3)cc(C)cc21.F[B-](F)(F)F.F[B-](F)(F)F.F[B-](F)(F)F.F[B-](F)(F)F.[Fe+2].[Fe+2]` [Compound 12, [Fe26_2(CH3CN)4](BF4)4] the “Effect on pUC18 DNA in the presence of H2O2 at the highest concentrations” value (supercoiled pUC18 DNA) was “total DNA degradation”, the IC50 [4] was 0.49 ± 0.08 µM and the “SI NCI-H460 (selectivity index)” value [4] was 8.1. For the same compound, the IC50 [7] was 1.24 ± 0.27 µM, the “SI OVCAR-8 (selectivity index)” value [7] was 3.2 and the IC50 [8] was 4.05 ± 0.62 µM.
